Assay results: paper PMC11850616, “Nanomolar inhibitor of the galectin-8 N-terminal domain binds via a non-canonical cation-π interaction” (Communications Chemistry, 2025)
Like-named read-outs stand apart in the source and are kept apart here.

How the values were obtained:
[1] = target: T1, Gal-8N (galectin-8 N-terminal domain) (Homo sapiens, UniProt O00214); test: competitive fluorescence polarisation assay, Gal-8N; assay type: binding; design: key to Kd (Galectin-8N): n. s.: n.s. = non-soluble at tested concentration; n. b.: n.b. = non-binding up to the highest tested concentration of 1500 µM; conditions: competitive FP
T1 construct: made in house
T1 sequence (O00214 19-152 limits assumed): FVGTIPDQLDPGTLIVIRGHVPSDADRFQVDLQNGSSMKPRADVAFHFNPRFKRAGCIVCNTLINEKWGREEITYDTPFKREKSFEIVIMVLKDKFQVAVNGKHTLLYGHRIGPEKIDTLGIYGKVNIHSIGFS
Protocol: (§1) Human galectins-1, -3, and -8N were expressed and purified as described previously[8],[23],[24]. Competitive fluorescence polarization assays were performed with a PHERAstar FS plate reader with software PHERAstar Mars version 2.10 R3 (BMG, Offenburg, Germany) and Tecan Spark multimode microplate reader (Tecan Trading AG, Switzerland), where a fluorescence anisotropy of fluorescent-tagged probes was measured by excitation at 485 nm and emission at 520 nm. Experiments were performed at 20 °C with Gal-1 at 0.5 µM, Gal-3 at 0.2 µM, and Gal-8N at 0.4 µM. Fluorescent probes used for experiments were 3,3′-dideoxy-3-[4-(fluorescein-5-yl-carbonylaminomethyl)-1H-1,2,3-triazol-1-yl]-3′-(3,5-di-methoxybenzamido)-1,1′-sulfanediyl-di-β-D-galactopyranoside at 0.02 µM for Gal-1 and -3 and 2-(fluorescein-5-yl-carbonylamino)ethyl β-D-galactopyranosyl(1-4)-2-acetamido-2-deoxy-β-D-glucopyranosyl(1–3)-β-D-galactopyranosyl(1–4)-β-D-glucopyranoside at 0.1 µM for Gal-8N in each well. Compounds were first dissolved in pure DMSO at 20 mM concentration and later diluted in 5% DMSO in PBS solution to 5-7 different concentrations. Each concentration was tested in duplicate. The highest inhibitor concentrations tested were 1.5 mM. The average values of Kd and SEM (standard error mean) were calculated from 4 to 8 duplicate measurements, showing 10–90% inhibition.

Gal-3 = target: T2, Gal-3 (Homo sapiens, UniProt P17931); test: competitive fluorescence polarisation assay, Gal-3; assay type: binding; design: key to Kd (Galectin-3): n. s.: n.s. = non-soluble at tested concentration; n. b.: n.b. = non-binding up to the highest tested concentration of 1500 µM; conditions: for Kd (Galectin-3) / Kd: competitive FP; for Gal-3 selectivity ratio Kd (Gal-3)/Kd (Gal-8N): ratio of FP Kd values
T2 construct: made in house
T2 sequence (P17931 whole entry): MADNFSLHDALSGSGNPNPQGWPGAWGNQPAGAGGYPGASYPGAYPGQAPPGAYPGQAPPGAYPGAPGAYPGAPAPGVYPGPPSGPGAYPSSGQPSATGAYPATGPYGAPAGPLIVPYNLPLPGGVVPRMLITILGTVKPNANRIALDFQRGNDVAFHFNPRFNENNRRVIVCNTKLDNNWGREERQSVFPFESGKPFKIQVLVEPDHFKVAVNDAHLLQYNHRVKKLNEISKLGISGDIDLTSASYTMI
Protocol: as §1

Gal-8N = target: T3, Gal-8N (Homo sapiens, UniProt O00214); test: ligand efficiency (LE) and ligand-lipophilicity efficiency (LLE) calculations; conditions: for LLE: from Gal-8N Kd and clogP; for LE: from Gal-8N Kd and number of non-hydrogen atoms
T3 construct: consisting of residues 4-158 was produced by Lund Protein Production Platform; made in house; host or cells: E. coli TUNER(DE3)
T3 sequence (O00214 4-158): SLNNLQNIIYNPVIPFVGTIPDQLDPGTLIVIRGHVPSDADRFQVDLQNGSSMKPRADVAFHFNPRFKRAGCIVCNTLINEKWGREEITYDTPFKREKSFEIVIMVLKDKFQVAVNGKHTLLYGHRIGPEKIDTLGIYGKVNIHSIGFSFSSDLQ

Gal-8C = target: T4, Gal-8C (Homo sapiens, UniProt O00214); test: competitive fluorescence polarisation assay, Gal-8C; assay type: binding; conditions: for Kd: competitive FP, mean ± SEM of n = 4 to 8; for Gal-8C selectivity ratio Kd (Gal-8C)/Kd (Gal-8N): ratio of FP Kd values
T4 construct: than to the C-terminal domain (Gal-8C)
T4 sequence (O00214 187-317 limits assumed): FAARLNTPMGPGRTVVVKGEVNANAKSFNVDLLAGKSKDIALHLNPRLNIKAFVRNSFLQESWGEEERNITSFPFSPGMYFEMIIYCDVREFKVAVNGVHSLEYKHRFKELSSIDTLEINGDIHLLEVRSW

Gal-1 = target: T5, Gal-1 (Homo sapiens, UniProt P09382); test: competitive fluorescence polarisation assay, Gal-1; assay type: binding; conditions: for Kd: competitive FP, mean ± SEM of n = 4 to 8, 20 °C; for Gal-1 selectivity ratio Kd (Gal-1)/Kd (Gal-8N): ratio of FP Kd values
T5 construct: made in house
T5 sequence (P09382 whole entry): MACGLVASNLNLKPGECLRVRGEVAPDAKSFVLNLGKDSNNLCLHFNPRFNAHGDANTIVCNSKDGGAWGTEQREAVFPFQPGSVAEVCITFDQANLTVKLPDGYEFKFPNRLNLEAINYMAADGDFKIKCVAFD
Protocol: as §1

[2] = ester compounds, highest tested concentration 1500 µM
[3] = ester compounds, highest tested concentration 1500 µM, read-out: Kd (Galectin-8N)
[4] = ester compounds, highest tested concentration 1500 µM, read-out: Kd (Galectin-3)
[5] = mean ± SEM of n = 4 to 8, 20 °C, read-out: Kd Gal-8N
[6] = mean ± SEM of n = 4 to 8, 20 °C, read-out: Kd Gal-3

Compound | Kd (Galectin-8N) [1, 2] | Kd (Galectin-3) (Gal-3; [2]) | Kd [1, 3] | Kd [1, 5] | Kd (Gal-3; [6]) | Gal-3 selectivity ratio Kd (Gal-3)/Kd (Gal-8N) (Gal-3) | LLE (Gal-8N) | LE (Gal-8N) | Kd (Gal-8C) | Gal-8C selectivity ratio Kd (Gal-8C)/Kd (Gal-8N) (Gal-8C) | Kd (Gal-1) | Gal-1 selectivity ratio Kd (Gal-1)/Kd (Gal-8N) (Gal-1) | also measured
COC(=O)c1ccc2nc(CO[C@H]3[C@@H](O)[C@@H](CO)O[C@H](Sc4ccc(Cl)c(Cl)c4)[C@@H]3OCc3ccccc3)n(C)c2c1 [Compound 7a] | n. s. | n. s. |  |  |  |  |  |  |  |  |  |  | 
COC(=O)c1ccc2nc(CO[C@H]3[C@@H](O)[C@@H](CO)O[C@H](Sc4ccc(Cl)c(Cl)c4)[C@@H]3OCc3cccc(C)c3)n(C)c2c1 [Compound 7b] | n. s. | n. s. |  |  |  |  |  |  |  |  |  |  | 
COC(=O)c1ccc2nc(CO[C@H]3[C@@H](O)[C@@H](CO)O[C@H](Sc4ccc(Cl)c(Cl)c4)[C@@H]3OCc3ccc(C)cc3)n(C)c2c1 [Compound 7c] | n. s. | n. s. |  |  |  |  |  |  |  |  |  |  | 
COC(=O)c1ccc2nc(CO[C@H]3[C@@H](O)[C@@H](CO)O[C@H](Sc4ccc(Cl)c(Cl)c4)[C@@H]3OCc3ccc(F)cc3)n(C)c2c1 [Compound 7d] | n. s. | n. s. |  |  |  |  |  |  |  |  |  |  | 
COC(=O)c1ccc2nc(CO[C@H]3[C@@H](O)[C@@H](CO)O[C@H](Sc4ccc(Cl)c(Cl)c4)[C@@H]3OCc3ccc(Cl)c(Cl)c3)n(C)c2c1 [Compound 7e] |  |  | > 1500 µM |  |  |  |  |  |  |  |  |  | Kd (Gal-3; [4]): > 1500 µM
COC(=O)c1ccc2nc(CO[C@H]3[C@@H](O)[C@@H](CO)O[C@H](Sc4ccc(Cl)c(Cl)c4)[C@@H]3OCc3cccc(Cl)c3)n(C)c2c1 [Compound 7f] |  |  | > 1500 µM |  |  |  |  |  |  |  |  |  | Kd (Gal-3; [4]): > 1500 µM
Cn1c(CO[C@H]2[C@@H](O)[C@@H](CO)O[C@H](Sc3ccc(Cl)c(Cl)c3)[C@@H]2OCc2ccccc2)nc2ccc(C(=O)O)cc21 [Compound 8a] |  |  |  | 1.5 ± 0.13 µM | 3.7 ± 0.5 µM | 2.5 | 0.382 | 0.195 (kcal/mol)/heavy atom | 320 ± 12 µM | 213 | 14 ± 0.82 µM | 9.4 | 
Cc1cccc(CO[C@@H]2[C@@H](OCc3nc4ccc(C(=O)O)cc4n3C)[C@@H](O)[C@@H](CO)O[C@@H]2Sc2ccc(Cl)c(Cl)c2)c1 [Compound 8b] |  |  |  | 2.1 ± 0.1 µM | 8.2 ± 0.7 µM | 3.9 | -0.257 | 0.185 (kcal/mol)/heavy atom | 303 ± 19 µM | 144 | 19 ± 0.67 µM | 9 | 
Cc1ccc(CO[C@@H]2[C@@H](OCc3nc4ccc(C(=O)O)cc4n3C)[C@@H](O)[C@@H](CO)O[C@@H]2Sc2ccc(Cl)c(Cl)c2)cc1 [Compound 8c] |  |  |  | 2.1 ± 0.15 µM | 5.9 ± 0.6 µM | 2.8 | -0.259 | 0.185 (kcal/mol)/heavy atom | 256 ± 24 µM | 122 | 16 ± 0.75 µM | 7.6 | 
Cn1c(CO[C@H]2[C@@H](O)[C@@H](CO)O[C@H](Sc3ccc(Cl)c(Cl)c3)[C@@H]2OCc2ccc(F)cc2)nc2ccc(C(=O)O)cc21 [Compound 8d] |  |  |  | 1.6 ± 0.06 µM | 4.2 ± 0.6 µM | 2.6 | 0.203 | 0.189 (kcal/mol)/heavy atom | 301 ± 28 µM | 188 | 14 ± 1.2 µM | 8.8 | 
Cn1c(CO[C@H]2[C@@H](O)[C@@H](CO)O[C@H](Sc3ccc(Cl)c(Cl)c3)[C@@H]2OCc2ccc(Cl)c(Cl)c2)nc2ccc(C(=O)O)cc21 [Compound 8e] |  |  |  | 4.3 ± 0.4 µM | 12 ± 3 µM | 2.8 | -1.38 | 0.171 (kcal/mol)/heavy atom | 577 ± 4 µM | 134 | 20 ± 0.84 µM | 4.7 | 
Cn1c(CO[C@H]2[C@@H](O)[C@@H](CO)O[C@H](Sc3ccc(Cl)c(Cl)c3)[C@@H]2OCc2cccc(Cl)c2)nc2ccc(C(=O)O)cc21 [Compound 8f] |  |  |  | 1.8 ± 0.18 µM | 5.8 ± 0.7 µM | 3.2 | -0.422 | 0.187 (kcal/mol)/heavy atom | 225 ± 37 µM | 125 | 15 ± 1.3 µM | 8.3 | 
C#CCO[C@@H]1[C@@H](OCc2nc3ccc(C(=O)OC)cc3n2C)[C@@H](O)[C@@H](CO)O[C@@H]1Sc1ccc(Cl)c(Cl)c1 [Compound 10] |  | n. s. | 275 ± 5 µM |  |  |  |  |  |  |  |  |  | 
COC(=O)c1ccccc1-n1cc(CO[C@@H]2[C@@H](OCc3nc4ccc(C(=O)O)cc4n3C)[C@@H](O)[C@@H](CO)O[C@@H]2Sc2ccc(Cl)c(Cl)c2)nn1 [Compound 15a] |  |  |  | 3.5 ± 0.37 µM | 4.7 ± 1 µM | 1.3 | 0.182 | 0.149 (kcal/mol)/heavy atom | 355 ± 57 µM | 101 | 69 ± 9.5 µM | 19.7 | 
COC(=O)c1ccc2nc(CO[C@H]3[C@@H](O)[C@@H](CO)O[C@H](Sc4ccc(Cl)c(Cl)c4)[C@@H]3OCC3CCCCC3)n(C)c2c1 [Compound 18] | n. s. | n. s. |  |  |  |  |  |  |  |  |  |  | 
COC(=O)c1ccc2nc(CO[C@H]3[C@@H](O)[C@@H](CO)O[C@H](Sc4ccc(Cl)c(Cl)c4)[C@@H]3OCC3CC3)n(C)c2c1 [Compound 21] |  | n. s. | > 1500 µM |  |  |  |  |  |  |  |  |  | 
COC(=O)c1ccc2nc(CO[C@H]3[C@@H](O)[C@@H](CO)O[C@H](Sc4ccc(Cl)c(Cl)c4)[C@@H]3OCC3CCC3)n(C)c2c1 [Compound 24] | n. s. | n. s. |  |  |  |  |  |  |  |  |  |  | 
COC(=O)c1ccc2nc(CO[C@H]3[C@@H](O)[C@@H](CO)O[C@H](Sc4ccc(Cl)c(Cl)c4)[C@@H]3OCC(=O)OC(C)(C)C)n(C)c2c1 [Compound 27] |  | n. s. | 201.7 ± 1.3 µM |  |  |  |  |  |  |  |  |  | 
COC(=O)c1ccc2nc(CO[C@H]3[C@@H](O)[C@@H](CO)O[C@H](Sc4ccc(Cl)c(Cl)c4)[C@@H]3OCC(=O)O)n(C)c2c1 [Compound 28] |  |  | 7.7 ± 0.3 µM |  |  |  |  |  |  |  | 44.7 ± 4.9 µM |  | Kd (Gal-3; [4]): 8.5 ± 1.5 µM
COC(=O)c1ccc2nc(CO[C@H]3[C@@H](O)[C@@H](CO)O[C@H](Sc4ccc(Cl)c(Cl)c4)[C@@H]3OC)n(C)c2c1 [Compound 31] | n. s. |  |  |  |  |  |  |  |  |  |  |  | Kd (Gal-3; [4]): 109 ± 31 µM
